# Test results as given in patent US5395836A, “8-tricycloalkyl xanthine derivatives” (Kyowa Hakko Kogyo Co., Ltd., priority 1993, dated 1995).
# Columns and labels:
# [1] = Activity on (R)-PIA-Induced Amnesia (step-through passive avoidance); assay type: in vivo, mouse (ddY-strain); conditions: oral, amnesia treatment +, n = 15, amnesia control 51.5 ± 17.0
# Experimental: Anti-dementia effect of Compound (I) was determined with (R)-PIA[(R)-N^6 -(2-phenylisopropyl)adenosine]-induced dementia model [Jpn. J. Pharmacol. 52 (Suppl. II), 107P (1990)] As the experimental animal, groups of ddY-strain mice (weighing 20-25 g), each group consisting of fifteen mice, were used. The test was performed with a step-through type passive avoidance apparatus (the bright and dark box).
# The bright and dark box was made up of a bright compartment (15×9×11 cm) lighted by 4 W white fluorescent light and a dark compartment (15×14×18 cm). […] In order to give a foot shock, the electric current (0.3 mA: 2 sec) may be passed through the grid floor of the dark compartment.
# The compound to be tested was suspended in 0.3% aqueous solution of carboxymethyl cellulose (CMC) and the suspension was orally administered 60 minutes before the acquisition trial (to the normal control group and the amnesia control group which is subjected to the following amnesia treatment, only 0.3% CMC was administered). 30 minutes after the administration of the test compound, 0.3 mg/kg of (R)-PIA was administered intraperitoneally as amnesia-inducing treatment [(R)-PIA was not administered to the normal control group].
# The training for acquisition of learning (acquisition trial) was carried out. The rat was introduced into the bright compartment, and after 10 seconds, the guillotine door was opened. The rat in the bright compartment rapidly moved into the dark compartment. As soon as the whole body of the rat entered the dark compartment, the guillotine door was closed and an electric current of 0.3 mA was passed through the grid floor for 2 seconds (foot shock). Immediately after the foot shock, the rat was taken out of the dark compartment.
# The test trial for observing the retention and recall of the memory (recall trial) was carried out as follows. Twenty-four hours after the acquisition trial, the rat was placed in the bright compartment and the guillotine door was opened. The length of time before the rat entered the dark compartment (latency) was measured. The latency was measured up to 600 seconds and the latency longer than 600 seconds was recorded as 600 seconds.
# The test of significance was carried out by Steel-test.
# [2] = Renal-protecting Effect (Glycerol-Induced Renal Failure Model); assay type: in vivo, rat (Wistar); conditions: ip, 24 h after glycerol; for Amount of creatinine in blood serum: 4.35 ± 0.23 (compound 3); for Amount of uria nitrogen in blood serum: 139.7 ± 10.2 (compound 3)
# Experimental: A renal failure is a state where the renal function is lowered and the homeostasis of a body fluid can be no longer maintained. It is known that an acute renal failure characteristic of uriniferous tubule disorder is caused by subcutaneous or intramuscular injection of glycerol to rats [Can. J. Physiol.
# Male Wistar rats were kept deprived of water for 18 hours, and served for the test. A test compound was intraperitoneally administered to the rats (dosage: 0.1 ml/100 g). After 30 minutes, the rats were anesthetized with ether and 50% glycerol was subcutaneously administered (dosage: 0.8 ml/100 g) to the rats, pinching the dorsal skin. Twenty four hours after the administration of glycerol, the rats were anesthetized with ether and 5 ml of blood was collected from the abdominal aorta. The collected blood was allowed to stand for 30 minutes or longer and then centrifuged at 3,000 rpm for 10 minutes, and the amounts of the serum creatinine and the serum urine-nitrogen (UN) were determined by auto analyzer (Olympus AU510) [creatinine test (Jaffe method), UN test (enzyme method); both tests were used in Olympus AU500/550 exclusive reagent […].
# adenosine A1 receptor = target: T1, adenosine A1 receptor (Rattus norvegicus, UniProt P25099); assay: Adenosine Receptor Antagonizing Activity (Adenosine A1 Receptor Binding Test); conditions: rat corpus striatum; 3H-CHA 1.1 nM; 25° C., 90 min; Cheng-Prusoff
# T1 construct: from tissue; host or cells: rat corpus striatum, washed membrane suspension
# T1 sequence (P25099 1-326): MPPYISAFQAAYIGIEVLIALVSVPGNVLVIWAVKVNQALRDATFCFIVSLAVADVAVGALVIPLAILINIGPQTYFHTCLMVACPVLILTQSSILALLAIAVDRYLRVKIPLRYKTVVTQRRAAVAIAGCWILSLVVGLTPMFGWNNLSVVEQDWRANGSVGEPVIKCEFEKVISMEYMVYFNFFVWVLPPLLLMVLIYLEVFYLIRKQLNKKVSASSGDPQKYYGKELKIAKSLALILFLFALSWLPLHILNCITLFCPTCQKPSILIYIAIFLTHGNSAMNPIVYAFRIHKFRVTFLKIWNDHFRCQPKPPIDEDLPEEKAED
# Experimental: The test was conducted according to the method of Bruns et al. [Proc. Natl. Acad. Sci. U.S.A., 77., 5547 (1980)] with slight modification.
# Corpus striatum of a rat was suspended in ice-cooled 50 mM Tris hydroxymethyl aminomethane hydrochloride (Tris HCl) buffer (pH 7.7) by using Polytron homogenizer (manufactured by Kinematicas Co.). The suspension was centrifuged (50,000×g, 10 minutes), and the precipitate was suspended again in the same amount of 50 mM Tris HCl buffer. The suspension was centrifuged under the same conditions, and the final precipitate was suspended once again in 50 mM Tris HCl buffer to give a tissue concentration of 100 mg (wet weight)/ml. The tissue suspension was allowed to stand in the presence of 0.02 unit/mg tissue of adenosine deaminase (manufacture by Sigma Co.) at 37° C. for 30 minutes. The tissue suspension was centrifuged (50,000×g, 10 minutes) and to the obtained precipitates was added 50 mM Tris HCl buffer to give a tissue concentration of 10 mg (wet weight)/ml.
# To 1 ml of the tissue suspension thus prepared, were added 50 μl of cyclohexyladenosine labeled with tritium (^3 H-CHA: 27 Ci/mmol, manufactured by New England Nuclear) (final concentration: 1.1 nM), and 50 μl of a test compound. The resulting mixture was allowed to stand at 25° C. for 90 minutes and then rapidly filtered by suction through a glass fiber filter (GF/C, manufactured by Whatman Co.). The filter was immediately washed three times with 5 ml each of ice-cooled 50 mM Tris HCl buffer, and transferred to a vial, and scintillator (EX-H by Wako Pure Chemical Industries, Ltd.) was added thereto. The radioactivity on the filter was determined with a liquid scintillation counter (manufactured by Packard Instrument Co.).
# The inhibition rate (Ki value) of the test compound against the binding of A1 receptors (^3 H-CHA binding) was calculated by the equation of Cheng-Prusoff. [formula]
# Diuretic Effect = assay type: in vivo, rat (Wistar); conditions: for Increase in amount of K+ excreted Δ(%) / Increase in amount of Na+ excreted Δ(%) / Increase in amount of urine Δ(%): control 0
# Experimental: The experiment was performed by using Wistar rats (male; 150 to 300 g). The rats were starved for 18 hours prior to the administration of a test compound (n=4 to 5). After test compounds were dissolved in 0.4% methanol, 1% dimethylsulfoxide and 0.01N sodium hydroxide/physiological saline, and administered intravenously, the physiological saline (25 ml/kg) was orally administered. Alternatively, test compounds dissolved in the physiological saline (25 ml/kg) was orally administered to the rats. Urine was collected from the rats during 4 hours after the oral administration, and urine volume was measured by a graduated measuring cylinder, and the electrolytes in the urine (Na^+ and K^+) were determined by flame photometer (775 A manufactured by Hitachi, Ltd.).
smiles,measurement,setting,value
"CCCn1c(=O)c2[nH]c(C34C[C@H]5CC3C[C@@H](C4)[C@@H]5O)nc2n(CCC)c1=O (relative stereo) [Compound 3, 8-(Trans-9-hydroxy-3-tricyclo[3.3.1.0^3,7]nonyl)-1,3-dipropylxanthine]",Recall trial average reaction latency,[1]; 0.08 mg/kg,404.3 ± 43.5 s
same,Recall trial average reaction latency,[1]; 0.31 mg/kg,438.8 ± 43.0 s
same,Recall trial average reaction latency,[1]; 1.25 mg/kg,445.5 ± 49.5 s
same,Recall trial average reaction latency,[1]; 5.0 mg/kg,430.5 ± 43.2 s
same,Amount of creatinine in blood serum,"[2]; 0.01 mg/kg, control 3.90 ± 0.24 (compounds 6, 7)",2.00 ± 0.21 mg/dL
same,Amount of uria nitrogen in blood serum,"[2]; 0.01 mg/kg, control 124.9 ± 7.5 (compounds 6, 7)",69.9 ± 8.4 mg/dL
same,Amount of creatinine in blood serum,"[2]; 0.1 mg/kg, control 4.55 ± 0.24 (compound 5)",2.32 ± 0.16 mg/dL
same,Amount of uria nitrogen in blood serum,"[2]; 0.1 mg/kg, control 137.2 ± 5.0 (compound 5)",64.4 ± 4.5 mg/dL
same,Ki,adenosine A1 receptor,0.23 nM
same,Amount of K+ excreted,"Diuretic Effect; iv, 3 μg/kg, n = 5, 4 hours, control 1.47 ± 0.31",1.24 ± 0.10 mEq/kg
same,Na+/K+,"Diuretic Effect; iv, 3 μg/kg, n = 5, 4 hours, control 1.52",2.99
same,Amount of Na+ excreted,"Diuretic Effect; iv, 3 μg/kg, n = 5, 4 hours, control 2.23 ± 0.61",3.71 mEq/kg
same,Amount of urine,"Diuretic Effect; iv, 3 μg/kg, n = 5, urine over 4 hours, control 14.5 ± 1.8",26.4 mL/kg
same,Increase in amount of K+ excreted Δ(%),"Diuretic Effect; po, 0.01 mg/kg, 4 hours",11%
same,Increase in amount of Na+ excreted Δ(%),"Diuretic Effect; po, 0.01 mg/kg, 4 hours",139%
same,Increase in amount of urine Δ(%),"Diuretic Effect; po, 0.01 mg/kg, 4 hours",99%
same,Na+/K+,"Diuretic Effect; po, 0.01 mg/kg, 4 hours, control 1.00",2.16
same,Increase in amount of K+ excreted Δ(%),"Diuretic Effect; po, 0.1 mg/kg, 4 hours",-9%
same,Increase in amount of Na+ excreted Δ(%),"Diuretic Effect; po, 0.1 mg/kg, 4 hours",148%
same,Increase in amount of urine Δ(%),"Diuretic Effect; po, 0.1 mg/kg, 4 hours",105%
same,Na+/K+,"Diuretic Effect; po, 0.1 mg/kg, 4 hours, control 1.00",2.72
